Experimental data reported in patent US7338940B2, “Cancer treatment including glycolytic inhibitors” (priority 2000, dated 2008).
In brackets after ≈: the same amount, converted by molar mass.

Columns and labels:
[1] = system: osteosarcoma cell line (143B; Wild type); test: Growth inhibition studies in wild type 143B osteosarcoma cells; assay type: cell-based; details: for 50% Growth Inhibition Dose / IC50: Wild type (143B) cells; for IC50: Homo sapiens, read-out: 50% Growth Inhibition Dose
[2] = system: ρ^o cells (cell line 206); test: Growth inhibition studies in ρ° cells devoid of mitochondrial DNA; assay type: cell-based; details: for 50% Growth Inhibition Dose / IC50: ρ° cells; for Ratio of 50% growth inhibition dose, ρ° to wild type (times more resistant): ρ° vs wild type 143B cells; for IC50: read-out: 50% Growth Inhibition Dose; for Relative toxicity/sensitivity in ρ^o vs wt cells (in words): cell model (B)
Excerpt: When an osteosarcoma cell line (143B; Wild type in Table 1 below) was exposed for prolonged periods to ethidium bromide a mutant completely devoid of mitochondrial DNA ρ^o was isolated. […] These processes are necessary for transmembrane proton pumping which creates an electronegative membrane potential (Δψmt) in the matrix side of the inner mitochondrial membrane. Since Rho 123 is a fluorescent dye, which due to its chemical positive charge accumulates in mitochondria, it is commonly used as an indicator of Δψmt.

143b cells = test: Lactate production in living cells (screen for inhibitors of oxidative phosphorylation); assay type: cell-based; details: for Change in lactate production (in words): increasing doses
Excerpt: Lactate (more commonly known as lactic acid) is an end product of glycolysis that is activated when a cell cannot use oxygen as its final electron acceptor. This occurs when cells are metabolizing anaerobically. Thus, under these conditions, pyruvate, which is the last end product of glycolysis during aerobic metabolism, is further metabolized to lactate. […] This discovery created a need for a screening method to identify agents which inhibit oxidative phosphorylation and thereby render a cell hypersensitive to glycolytic inhibitors. Consequently, we have developed a rapid and an inexpensive way to detect such agents by measuring increases in the production of lactate in living cells.
Such methodology provides a practical means for testing and or screening extensive libraries of structurally diverse compounds to identify inhibitors of oxidative phosphorylation as well as for obtaining new leads to design novel inhibitors of this fundamental cellular process.

[3] = system: human breast carcinoma cells, MCF-7; test: Colony forming units after co-treatment with Rho 123 and 2-dg; assay type: cell-based
Excerpt: 218:1117-1119, 1982; Lampidis, T J, Bernal, S D, Summerhayes, I C, and Chen, L B. “Selective toxicity of Rhodamine 123 in carcinoma cells in vitro.” Cancer Res. 43:716-720, 1983; and Bernal, S B, Lampidis, T J, Mclsaac, B, and Chen, L B. “Anticarcinoma activity in vivo of Rhodamine 123, a mitochondrial-specific dye.” Science.

implanted tumors = test: In vivo treatment of animals with implanted tumors; details: for Tumor response: animals with implanted tumors
Excerpt: This latter result provides evidence that manipulation of Oxphos and glycolysis simultaneously can cure tumors in animals. […] In this regard, several reports have shown that low levels of 2-dg can be safely administered to animals for various reasons including hypersensitization of tumors to irradiation.

[4] = system: tumor cells (143B or MCF-7); test: Hypersensitization of tumor cells to glycolytic inhibitors (cell model (A)); assay type: cell-based; details: intact tumor cells
[5] = system: wild type 143B (wt) and ρ^o cells (cell line 206); test: Flow cytometric analysis of Rho 123 accumulation/retention; assay type: cell-based; details: non-P-gp cell lines (143B wt and ρ^o)
Protocol: Flow cytometric analysis was performed in order to quantitate the differences observed microscopically between wild type 143B (wt) and ρ^o cells (designated as cell line 206) in their accumulation of Rho 123.
To ensure that our accumulation results were not complicated by P-gp-mediated MDR, since Rho 123 is a known substrate for this transporter, both cell types were examined for this gene by RT-PCR and were found not to express it.

Molecule: Cc1cc2nc3cc(C)c(N)cc3[n+](-c3ccccc3)c2cc1N.[Cl-] [Saffranin O]
- 50% Growth Inhibition Dose [1]: 0.35 µg/mL
- 50% Growth Inhibition Dose [2]: 2 µg/mL
- Ratio of 50% growth inhibition dose, ρ° to wild type (times more resistant) [2]: 6

Molecule: Rhodamine 123
- 50% Growth Inhibition Dose [1]: 1.0 µg/mL
- 50% Growth Inhibition Dose [2]: 50 µg/mL
- Ratio of 50% growth inhibition dose, ρ° to wild type (times more resistant) [2]: 50
- LACTATE (143b cells; dose 0.25 μg/ml): 9.3 +/− 0.4 μg/μg protein
- LACTATE (143b cells; dose 0.50 μg/ml): 13.2 +/− 0.2 μg/μg protein
- LACTATE (143b cells; dose 1.0 μg/ml): 14.6 +/− 2.3 μg/μg protein
- Change in lactate production (in words) (143b cells): lactate is accordingly increased
- Colony forming units inhibited ([3]; MCF-7, Rho 123 at its 50% dose, 2-dg at a non-toxic dose): 50%
- Tumor response (implanted tumors): only partial or no responses
- Hypersensitization of tumor cells to glycolytic inhibitors [4]: hypersensitize

Molecule: O=CC[C@@H](O)[C@H](O)[C@H](O)CO [2-deoxy-glucose, 2-deoxy-D-glucose]
- IC50 [1]: 1000 µg/mL (≈ 6090 µM)
- ID50 ([1]; wt cells): 1000 µg/mL (≈ 6090 µM)
- ID50 ([2]; ρ^o cells): 50 µg/mL (≈ 305 µM)
- IC50 [2]: 50 µg/mL (≈ 305 µM)
- Ratio of 50% growth inhibition dose, ρ° to wild type (times more resistant) [2]: 0.05
- Toxicity at the dose used for co-treatment ([3]; MCF-7, drug alone): no toxicity
- Tumor response (implanted tumors): only partial or no responses
- Safety of administration to animals (implanted tumors; doses effective for anti-tumor activity in combination with an Oxphos inhibitor): can be administered safely

Molecule: CC(=O)O[C@H]1C(=O)[C@@]2(C)[C@H]([C@H](OC(=O)c3ccccc3)[C@]3(O)C[C@H](OC(=O)[C@H](O)[C@@H](NC(=O)c4ccccc4)c4ccccc4)C(C)=C1C3(C)C)[C@]1(OC(C)=O)CO[C@@H]1C[C@@H]2O [Paclitaxel]
- IC50 [1]: 0.05 µg/mL (≈ 0.0586 µM)
- Relative toxicity/sensitivity in ρ^o vs wt cells (in words) [2]: equitoxic
- IC50 [2]: 0.05 µg/mL (≈ 0.0586 µM)
- Ratio of 50% growth inhibition dose, ρ° to wild type (times more resistant) [2]: 1
- LACTATE (143b cells; dose 0.0005 μg/ml): 5.6 +/− 0.7 μg/μg protein
- LACTATE (143b cells; dose 0.001 μg/ml): 6.1 +/− 0.7 μg/μg protein
- LACTATE (143b cells; dose 0.002 μg/ml): 6.6 +/− 0.3 μg/μg protein
- Change in lactate production (in words) (143b cells): little or no significant changes
- Hypersensitization of tumor cells to glycolytic inhibitors [4]: do not hypersensitize

Molecule: COc1ccc(CCN(C)CCCC(C#N)(c2ccc(OC)c(OC)c2)C(C)C)cc1OC (stereo not drawn) [verapamil]
- Effect on retention of Rho 123 [5]: increases the retention of Rho 123

Molecule: CC[C@]1(O)C[C@@H]2CN(CCc3c([nH]c4ccccc34)[C@@](C(=O)OC)(c3cc4c(cc3OC)N(C)[C@H]3[C@@](O)(C(=O)OC)[C@H](OC(C)=O)[C@]5(CC)C=CCN6CC[C@]43[C@@H]65)C2)C1 [Vinblastine]
- IC50 [1]: 0.00075 µg/mL (≈ 0.000925 µM)
- Relative toxicity/sensitivity in ρ^o vs wt cells (in words) [2]: equitoxic
- IC50 [2]: 0.00075 µg/mL (≈ 0.000925 µM)
- Ratio of 50% growth inhibition dose, ρ° to wild type (times more resistant) [2]: 1
- LACTATE (143b cells; dose 0.0005 μg/ml): 5.6 +/− 0.6 μg/μg protein
- LACTATE (143b cells; dose 0.001 μg/ml): 6.3 +/− 0.9 μg/μg protein
- LACTATE (143b cells; dose 0.002 μg/ml): 5.8 +/− 0.3 μg/μg protein
- Change in lactate production (in words) (143b cells): little or no significant changes
- Hypersensitization of tumor cells to glycolytic inhibitors [4]: do not hypersensitize

Molecule: COc1cccc2c1C(=O)c1c(O)c3c(c(O)c1C2=O)C[C@@](O)(C(=O)CO)C[C@@H]3O[C@H]1C[C@H](N)[C@H](O)[C@H](C)O1 [Doxorubicin]
- IC50 [1]: 0.01 µg/mL (≈ 0.0184 µM)
- Relative toxicity/sensitivity in ρ^o vs wt cells (in words) [2]: equitoxic
- IC50 [2]: 0.01 µg/mL (≈ 0.0184 µM)
- Ratio of 50% growth inhibition dose, ρ° to wild type (times more resistant) [2]: 1
- LACTATE (143b cells; dose 0.005 μg/ml): 5.1 +/− 0.4 μg/μg protein
- LACTATE (143b cells; dose 0.01 μg/ml): 5.5 +/− 0.7 μg/μg protein
- Change in lactate production (in words) (143b cells): little or no significant changes
- Hypersensitization of tumor cells to glycolytic inhibitors [4]: do not hypersensitize
